Results from patent US20170253917A1, “METHODS AND SYSTEMS FOR DETERMINING ANTIBIOTIC SUSCEPTIBILITY” (priority 2016, published 2017).

Tested on: 1496 clinical isolates of E. coli
Assay: Phenotypic antibiotic susceptibility testing, MicroScan WalkAway plus System, Neg MIC 45 panel
Format: cell-based
Details: for Phenotype of the E. coli isolates in words: 1496 E. coli isolates; for Measured Phenotype Susceptible (%) / Measured Phenotype Resistant (%): share of the 1496 E. coli isolates; for Measured Phenotype Resistant (%): resistant or intermediate combined as resistant
Description: Phenotypic antibiotic susceptibility testing was performed and an antibiotic response of resistant, intermediate or susceptible was assigned to each E. coli isolate per antibiotic based on minimal inhibitory concentrations as described in the MicroScan product insert. Phenotypic antibiotic susceptibility testing was performed on the 1496 E. coli isolates using the MicroScan WalkAway plus System and the Neg MIC 45 panel (P/N B1017-424) which covers 25 antibiotics. Cryopreserved isolates were sub-cultured twice on blood agar plates prior to antibiotic susceptibility testing. The MicroScan instrument was used to assign an antibiotic response of resistant, intermediate or susceptible for each isolate per antibiotic based on minimal inhibitory concentrations as described in the MicroScan product insert. Assignments of resistant or intermediate were combined and reported as resistant in this example. Assignments of susceptible are reported as such in this example.

Compound	Phenotype of the E. coli isolates in words	Measured Phenotype Susceptible (%)	Measured Phenotype Resistant (%)
NCC[C@H](O)C(=O)N[C@@H]1C[C@H](N)[C@@H](O[C@H]2O[C@H](CN)[C@@H](O)[C@H](O)[C@H]2O)[C@H](O)[C@H]1O[C@H]1O[C@H](CO)[C@@H](O)[C@H](N)[C@H]1O [Amikacin]	the vast majority of isolates exhibited phenotypic susceptibility	94	6
CC1(C)S[C@@H]2[C@H](NC(=O)[C@H](N)c3ccccc3)C(=O)N2[C@H]1C(=O)O [Ampicillin]	the vast majority of isolates exhibited phenotypic resistance	3	97
C[C@H]1[C@H](NC(=O)/C(=N\OC(C)(C)C(=O)O)c2csc(N)n2)C(=O)N1S(=O)(=O)O [Aztreonam]		9	91
Cc1nnc(SCC2=C(C(=O)O)N3C(=O)[C@@H](NC(=O)Cn4cnnn4)[C@H]3SC2)s1 [Cefazolin]	the vast majority of isolates exhibited phenotypic resistance	5	95
CO/N=C(\C(=O)N[C@@H]1C(=O)N2C(C(=O)[O-])=C(C[N+]3(C)CCCC3)CS[C@H]12)c1csc(N)n1 [Cefepime]		10	90
CO/N=C(\C(=O)N[C@@H]1C(=O)N2C(C(=O)O)=C(COC(C)=O)CS[C@H]12)c1csc(N)n1 [Cefotaxime]		9	91
CO[C@@]1(NC(=O)Cc2cccs2)C(=O)N2C(C(=O)O)=C(COC(N)=O)CS[C@@H]21 [Cefoxitin]		79	21
CC(C)(O/N=C(\C(=O)N[C@@H]1C(=O)N2C(C(=O)[O-])=C(C[n+]3ccccc3)CS[C@H]12)c1csc(N)n1)C(=O)O [Ceftazidime]		9	91
CO/N=C(\C(=O)N[C@@H]1C(=O)N2C(C(=O)O)=C(CSc3nc(=O)c(=O)[nH]n3C)CS[C@H]12)c1csc(N)n1 [Ceftriaxone]		8	92
CO/N=C(\C(=O)N[C@@H]1C(=O)N2C(C(=O)O)=C(COC(N)=O)CS[C@H]12)c1ccco1 [Cefuroxime]		7	93
C[C@@H](O)[C@H]1C(=O)N2C(C(=O)O)=C(S[C@@H]3CN[C@H](C(=O)Nc4cccc(C(=O)O)c4)C3)[C@H](C)[C@H]12 [Ertapenem]	the vast majority of isolates exhibited phenotypic susceptibility	98	4
C[C@@H](O)[C@H]1C(=O)N2C(C(=O)O)=C(SCCN=CN)C[C@H]12 [Imipenem]		97	3
C[C@H]1COc2c(N3CCN(C)CC3)c(F)cc3c(=O)c(C(=O)O)cn1c23 [Levofloxacin]		19	81
C[C@@H](O)[C@H]1C(=O)N2C(C(=O)O)=C(S[C@@H]3CN[C@H](C(=O)N(C)C)C3)[C@H](C)[C@H]12 [Meropenem]	the vast majority of isolates exhibited phenotypic susceptibility	98	2
CCN1CCN(C(=O)N[C@@H](C(=O)N[C@@H]2C(=O)N3[C@@H]2SC(C)(C)[C@@H]3C(=O)O)c2ccccc2)C(=O)C1=O [Piperacillin]	the vast majority of isolates exhibited phenotypic resistance	4	96
CN(C)[C@@H]1C(O)=C(C(N)=O)C(=O)[C@@]2(O)C(O)=C3C(=O)c4c(O)cccc4[C@@](C)(O)[C@H]3C[C@@H]12 [Tetracycline]		32	68
CN(C)c1cc(NC(=O)CNC(C)(C)C)c(O)c2c1C[C@H]1C[C@H]3[C@H](N(C)C)C(O)=C(C(N)=O)C(=O)[C@@]3(O)C(O)=C1C2=O [Tigecycline]	the vast majority of isolates exhibited phenotypic susceptibility	99.6	0.4
NC[C@H]1O[C@H](O[C@H]2[C@H](O)[C@@H](O[C@H]3O[C@H](CO)[C@@H](O)[C@H](N)[C@H]3O)[C@H](N)C[C@@H]2N)[C@H](N)C[C@@H]1O [Tobramycin]		45	55
Amoxicillin/K Clavulanate		43	57
Ampicillin/Sulbactam		16	84
Gentamicin		61	39
Piperacillin/Tazobactam		84	16
Ticarcillin/K Clavulanate		56	44
Trimethoprim/Sulfamethoxazole		36	64
